In patent US4448730A, “Hydroxybenzohydroxamic acids, benzamides and esters and related compounds as ribonucleotide reductase inhibitors” (priority 1982, dated 1984):
Where two headings read alike, the source gives them in different places. Values belong to the compound of their own block, whether it stands above or below them.

Columns and labels:
ribonucleotide reductase = molecular target: T1, ribonucleotide reductase (Rattus norvegicus, UniProt Q4KLN6); assay: Inhibition of ribonucleotide reductase (conversion of CDP to dCDP), enzyme partially purified from Novikoff hepatoma; format: biochemical; conditions: for IC50: CDP to dCDP, 40 min at 30° C, pH 7.5, enzyme from Novikoff hepatoma, read-out: ID50 (inhibitory dose which inhibits ribonucleotide reductase by 50%); for Inhibitory Potency for ribonucleotide reductase: relative to hydroxyurea, given an arbitrary value of 1.0
T1 construct: partially purified from Novikoff hepatoma; from tissue; host or cells: Novikoff hepatoma (rat tumour), partially purified enzyme
T1 sequence (Q4KLN6 1-390): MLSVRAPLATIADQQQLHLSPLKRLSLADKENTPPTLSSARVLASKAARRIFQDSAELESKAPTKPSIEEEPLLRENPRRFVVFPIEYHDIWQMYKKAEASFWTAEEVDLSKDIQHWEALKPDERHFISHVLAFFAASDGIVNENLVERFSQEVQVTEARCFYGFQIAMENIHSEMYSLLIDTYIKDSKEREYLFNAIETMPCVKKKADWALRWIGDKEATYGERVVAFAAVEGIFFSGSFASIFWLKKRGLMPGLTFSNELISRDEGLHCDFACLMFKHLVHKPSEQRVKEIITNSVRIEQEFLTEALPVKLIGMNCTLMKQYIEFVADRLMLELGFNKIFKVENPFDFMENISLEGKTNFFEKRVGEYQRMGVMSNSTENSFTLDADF
Excerpt: (§1) Table 2 gives ribonucleotide reductase data for certain compounds of formula I. In the table, column 1 gives the substitution pattern in the benzene ring, column 2, the R^1 group, column 3, the ID50 (inhibitory dose in micromolar concentration which inhibits ribonucleotide reductase by 50%), column 4, the average percent (± standard error) increase in the life span (ILS) of 8 treated mice inoculated with L1210 leukemia compared with 8 control mice also inoculated with L1210. The daily dose level of the drug which was administered for 8 days is indicated in column 5. Table 3 gives the relative potency of the compounds represented by formula I above as inhibitors of ribonucleotide reductase compared to hydroxyurea whose potency was given an arbitrary value of 1.0. In table 3, column 1 gives the name of the compound and column 2 the relative inhibitory potency of each of the compounds of column 1.
In the above determination of ID50 's in Table 3, ribonucleotide reductase is partially purified from Novikoff hepatoma by a procedure similar to that set forth by Elford et al. J. Biol. Chem. 245, 5228 (1970). The activity of the enzyme was measured by a slightly modified assay procedure originally developed by Reichard et al. id, 236, 1150 […]. This procedure measures the conversion of CDP to dCDP. The assay mixture (0.34 ml.) contains 3 μCi of [^3 H] CDP (specific activity […]), 3.3 μmole ATP, 5.9 μmoles magnesium chloride, 8.8 μmoles Hepes buffer at pH=7.5, 15 μmoles dithiothreitol and enzyme protein between 0.4 and 1.3 mg. Incubation was provided for forty minutes at 30° C. Ion exchange chromatography employing Dowex 50 (H^+) resin is used to separate the product from the substrate. The inhibitors were dissolved in water and a mixture of water and up to 1 % ethanol or 2% dimethylsulfoxide, neither one of which inhibited the enzyme at these concentrations. Each inhibitor was tested at a minimum of three concentrations and the active compounds reassayed at least one additional time. ID50 's in μmoles were estimated from graphs summarizing results for each compound.

L1210 leukemia = L1210 leukemia in mice, increase in life span (Table 2); format: in vivo; conditions: Mus musculus, L1210, 192 h, read-out: ILS, average percent (± standard error) increase in life span; for ILS at 200 mg/kg: 200 mg/kg daily for 8 days; for ILS at 500 mg/kg: 500 mg/kg daily for 8 days
Excerpt: As stated above, the compounds represented by formula I above have the ability to inhibit ribonucleotide reductase, an enzyme involved in the reductive conversion of ribonucleotides to deoxyribonucleotides. This enzymatic reaction is a rate controlling step in the biosynthetic pathway leading to DNA and cell replication. In general, the ribonucleotide reductase level is closely correlated with cellular replication.
as §1

L-1210 Leukemia [1] = format: in vivo, mice; conditions: once or twice daily for 9-10 days
Protocol: (§2) All compounds were administered once or twice daily for 9-10 days starting 24 hours after inoculation with the tumor.

Lewis Lung = assay: Activity vs. Lewis Lung (Table 5); format: in vivo, mice; conditions: once or twice daily for 9-10 days
Protocol: as §2

L-5563 lymphoma = assay: Activity vs. L-5563 lymphoma (Table 6); conditions: once or twice daily for 9-10 days
Protocol: as §2

L-1210 Leukemia [2] = format: in vivo, mice
Protocol: In a series of studies against L-1210 leukemia, in addition to those studies set forth in Table 2 and 4, 3,4-dihydroxybenzohydroxamic acid gave the following increases in survival times at the dose levels specified. Drug was administered daily for nine days.
Similar data for 3,4,5-trihydroxybenzohydroxamic acid are as follows: […]

CA-755 adenocarcinoma = assay: Activity vs. CA-755 adenocarcinoma (Table 7); format: in vivo, mice; conditions: once or twice daily for 9-10 days
Protocol: as §2

L-1210 Leukemia [3] = assay: Direct side-by-side comparison with L-1210 leukemia; format: in vivo, mice
Excerpt: In a direct side-by-side comparison with L-1210 leukemia, the following results were obtained.

L-1210 Leukemia [4] = format: in vivo, mice; remark: listed apart in the source
Excerpt: The above data clearly show the enhanced anti-tumor activity of trihydroxybenzohydroxamic acid where the hydroxy groups are vicinal but no hydroxyl is ortho. Similar data are available for the vicinal dihydroxybenzohydroxamic acids with and without an ortho-hydroxy substituent in an L-1210 leukemic test in mice as follows: […]

[5] = Biochemical Pharmacology 1971; cited from earlier work
[6] = test system: DNA synthesis in Ehrlich ascites tumor cells; conditions: cited from earlier work; for inhibition of / selectivity against DNA synthesis (in words) / selectivity against DNA synthesis (in words): Gale and Hynes 1968; for inhibition of / selectivity against DNA synthesis (in words): in vitro; for selectivity against DNA synthesis (in words): only after exposure of the cells for 1-2 hours
P388 Leukemia = assay: Activity vs. P388 Leukemia (Table 8); format: in vivo, mice; conditions: once or twice daily for 9-10 days
Protocol: as §2

IC50 (ribonucleotide reductase): 5 µM | Inhibitory Potency for ribonucleotide reductase (ribonucleotide reductase): 100
Compound: NC(=O)c1ccc(O)c(O)c1O [2,3,4-trihydroxybenzamide]
ILS at 200 mg/kg (L1210 leukemia): 48 ± 7%

Compound: O=C(NO)c1ccc(O)c(O)c1O [2,3,4-trihydroxybenzohydroxamic acid]
% increase in survival time (L-1210 Leukemia [1]; 25-50 mg/kg): 17-21% | IC50 (ribonucleotide reductase): 3.5 µM | Inhibitory Potency for ribonucleotide reductase (ribonucleotide reductase): 140 | ILS at 125 mg/kg (L1210 leukemia; 125 mg/kg daily for 8 days): 30 ± 7% | % tumor inhibition (Lewis Lung; 25-50 mg/kg): 13-14% | toxic (in column % inhibition) (L-5563 lymphoma; 25-50 mg/kg): toxic | % increase in survival (L-1210 Leukemia [2]; 25 mg/kg daily for nine days): 10% | % increase in survival (L-1210 Leukemia [2]; 50 mg/kg daily for nine days): 8% | % increase in survival (L-1210 Leukemia [2]; 100 mg/kg daily for nine days): 16% | % inhibition (CA-755 adenocarcinoma; 25-50 mg/kg): 12-18%

Compound: O=C(NO)c1cccc(O)c1O [2,3-dihydroxybenzohydroxamic acid]
IC50 (ribonucleotide reductase): 8 µM | Inhibitory Potency for ribonucleotide reductase (ribonucleotide reductase): 63 | % increase in survival time (L-1210 Leukemia [3]; 125 mg/kg): 0% | % increase in survival time (L-1210 Leukemia [3]; 250 mg/kg): 16% | ILS at 200 mg/kg (L1210 leukemia): 36 ± 11% | % increase in survival time (L-1210 Leukemia [4]; 300 mg/kg): about 0% | % increase in survival time (L-1210 Leukemia [4]; 450 mg/kg): about 0% | antimitogenic activity (in words) [5]: most active compounds tested | inhibition of / selectivity against DNA synthesis (in words) [6]: marked selectivity against DNA synthesis with a greater inhibition than that produced by salicylhydroxamic acid

IC50 (ribonucleotide reductase): 250 µM | Inhibitory Potency for ribonucleotide reductase (ribonucleotide reductase): 2.0
Compound: O=C(NO)c1ccc(O)cc1O [2,4-dihydroxybenzohydroxamic acid]
ILS at 500 mg/kg (L1210 leukemia): 42 ± 7%

IC50 (ribonucleotide reductase): 200 µM | Inhibitory Potency for ribonucleotide reductase (ribonucleotide reductase): 2.5
Compound: O=C(NO)c1cc(O)ccc1O [2,5-dihydroxybenzohydroxamic acid]
ILS at 300 mg/kg (L1210 leukemia; 300 mg/kg daily for 8 days): 30 ± 14%

IC50 (ribonucleotide reductase): 100 µM | Inhibitory Potency for ribonucleotide reductase (ribonucleotide reductase): 5.0
Compound: O=C(NO)c1c(O)cccc1O [2,6-dihydroxybenzohydroxamic acid]
ILS at 88 mg/kg (L1210 leukemia; 88 mg/kg daily for 8 days): 23 ± 11%

Compound: Nc1ccc(C(=O)NO)c(O)c1 [2-hydroxy-4-aminobenzoyl compound]
antimitogenic activity (in words) [5]: inactive

IC50 (ribonucleotide reductase): 25 µM
Compound: CNC(=O)c1cc(O)c(O)c(O)c1 [3,4,5 NHCH3]
ILS at 500 mg/kg (L1210 leukemia): 60 ± 29%

Compound: NC(=O)c1cc(O)c(O)c(O)c1 [3,4,5-trihydroxybenzamide]
% increase in survival time (L-1210 Leukemia [1]; 150 mg/kg): 50% | % increase in survival time (L-1210 Leukemia [1]; 175 mg/kg): 55% | % increase in survival time (L-1210 Leukemia [1]; 225 mg/kg): 10% | IC50 (ribonucleotide reductase): 10 µM | Inhibitory Potency for ribonucleotide reductase (ribonucleotide reductase): 50 | % Prolongation (P388 Leukemia; 175 mg/kg): 43% | % Prolongation (P388 Leukemia; 200 mg/kg): 40% | % Prolongation (P388 Leukemia; 225 mg/kg): 55% | ILS at 250 mg/kg (L1210 leukemia; 250 mg/kg daily for 8 days): 42 ± 5% | % tumor inhibition (Lewis Lung; 200 mg/kg): 21% | toxic (in column % inhibition) (L-5563 lymphoma; 200 mg/kg): toxic | % inhibition (CA-755 adenocarcinoma; 200 mg/kg): 38%

IC50 (ribonucleotide reductase): 50 µM | Inhibitory Potency for ribonucleotide reductase (ribonucleotide reductase): 10
Compound: NC(=O)c1ccc(O)c(O)c1 [3,4-dihydroxybenzamide]
ILS at 1200 mg/kg (L1210 leukemia; 1200 mg/kg daily for 8 days): 35 ± 11%

Compound: O=C(Cc1ccc(O)c(O)c1)NO [3,4-dihydroxyphenylacetohydroxamic acid]
% increase in survival time (L-1210 Leukemia [1]; 606 mg/kg): 57%

Compound: Nc1cc(N)cc(C(=O)NO)c1 [3,5-Diaminobenzohydroxamic acid]
selectivity against DNA synthesis (in words) [6]: relative selectivity against DNA synthesis

IC50 (ribonucleotide reductase): 400 µM | Inhibitory Potency for ribonucleotide reductase (ribonucleotide reductase): 1.2
Compound: O=C(NO)c1cc(O)cc(O)c1 [3,5-dihydroxybenzohydroxamic acid]
ILS at 1000 mg/kg (L1210 leukemia; 1000 mg/kg daily for 8 days): 52 ± 22%

Compound: CC(C)c1cc(C(=O)NO)c(O)c(C(C)C)c1 [3,5-diisopropylsalicylhydroxamic acid]
inhibition of DNA synthesis, rank in words ([6]; Gale, Hynes and Smith 1970): most active compound

Compound: Nc1ccc(C(=O)NO)cc1 [4-aminobenzohydroxamic acid]
antimitogenic activity (in words) [5]: inactive | selectivity against DNA synthesis (in words) [6]: relative selectivity against DNA synthesis

Compound: NC(=O)c1ccccc1 [benzamide]
inhibition of / selectivity against DNA synthesis (in words) [6]: totally inactive

Compound: NC(=O)NO [hydroxyurea, reference compound]
% increase in survival time (L-1210 Leukemia [1]; 30 mg/kg): 27% | % increase in survival time (L-1210 Leukemia [1]; 40 mg/kg): 27% | % increase in survival time (L-1210 Leukemia [1]; 60 mg/kg): 92% | % increase in survival time (L-1210 Leukemia [1]; 71 mg/kg): 58% | % tumor inhibition (Lewis Lung; 71 mg/kg): 27% | % tumor inhibition (Lewis Lung; 400 mg/kg): 44% | % inhibition (CA-755 adenocarcinoma; 71 mg/kg): 27% | % inhibition (CA-755 adenocarcinoma; 200 mg/kg): 26%

Compound: O=C(Oc1ccccc1)c1cc(O)c(O)c(O)c1 [phenyl 3,4,5-trihydroxybenzoate]
% increase in survival time (L-1210 Leukemia [1]; 200 mg/kg): 56% | Inhibitory Potency for ribonucleotide reductase (ribonucleotide reductase): 33 | % tumor inhibition (Lewis Lung; 50 mg/kg): 2% | % tumor inhibition (Lewis Lung; 200 mg/kg): 14% | % inhibition (L-5563 lymphoma; 200 mg/kg): 19% | % inhibition (CA-755 adenocarcinoma; 100 mg/kg): 27% | % inhibition (CA-755 adenocarcinoma; 200 mg/kg): 11%
